Test results from ChEMBL document CHEMBL3286379, “Design and synthesis of pyrimidine molecules endowed with thiazolidin-4-one as new anticancer agents” (Eur J Med Chem, 2014).

Legend:
Rattus norvegicus [1] = assay: Hepatotoxicity in rat assessed as SGPT level at 0.12 mg/kg, po after 12 days (reference value: 31.17 +/- 0.39 U/mL); type: toxicity, organism-based; design: dose 0.12 mg/kg, route oral; settings: in vivo, 288 h
Rattus norvegicus [2] = assay: Hepatotoxicity in rat assessed as SGOT level at 0.12 mg/kg, po after 12 days (reference value: 140.23 +/- 1.39 U/mL); type: toxicity, organism-based; design: dose 0.12 mg/kg, route oral; settings: in vivo, 288 h

O=c1[nH]cc(F)c(=O)[nH]1 [FLUOROURACIL]
Activity (Rattus norvegicus [1]): 32.75 U/ml
Activity (Rattus norvegicus [2]): 151.21 U/ml
